Measurements reported in publication PMC6669322, “Small Molecule Binding to Alzheimer Risk Factor CD33 Promotes Aβ Phagocytosis” (iScience, 2019).

Target: T1, CD33 H45A (Homo sapiens, UniProt P20138, H45A)
T1 construct: human CD33 ORF (NM_001772.3), lacking its signal peptide; expressed in transfected cells; host or cells: HEK293T, transient, pT8-SNAP vector
Assay: SNAP-tag homogeneous time-resolved fluorescence binding assay, CD33 H45A
Settings: H45 mutated to alanine, in words
Experimental: We then used our structural data to design mutations of key residues interacting with P22 to assess which interactions were the most important for binding affinity. The residues were mutated into alanine, and the effect of these mutations on P22 binding affinity was assessed using a SNAP-tag homogeneous time-resolved fluorescence binding assay (see Transparent Methods and Figures 3E–3G). The R119A mutation, which destroys the salt bridge between P22 and CD33, was one of the most detrimental to binding (>30-fold loss) (Figure 2C and Table S4). […]
HEK293T cells were cultured in DMEM (ThermoFisher Scientific # 11965092) containing 10% FBS (Hyclone # SH30070.03) and 1% Penicillin-Streptomycin (ThermoFisher Scientific # 15140122) and transfected using Fugene HD (Promega # E2312) in 10 cm plates. […] The cells were counted, centrifuged and resuspended in PBS at a concentration of 1,000 cells/μL and 10 μL were plated into each well. […] Non-specific binding was assessed by competition with 100 μM of the non-labeled P22, as well as in control (Snap-tagged dopamine D2R receptor)-transfected cells.
Fluorescence was read with a PHERAstar plate reader using an excitation of 337 nm and emissions of 620 and 665 nm. […]

T1 sequence (P20138 18-364 H45A): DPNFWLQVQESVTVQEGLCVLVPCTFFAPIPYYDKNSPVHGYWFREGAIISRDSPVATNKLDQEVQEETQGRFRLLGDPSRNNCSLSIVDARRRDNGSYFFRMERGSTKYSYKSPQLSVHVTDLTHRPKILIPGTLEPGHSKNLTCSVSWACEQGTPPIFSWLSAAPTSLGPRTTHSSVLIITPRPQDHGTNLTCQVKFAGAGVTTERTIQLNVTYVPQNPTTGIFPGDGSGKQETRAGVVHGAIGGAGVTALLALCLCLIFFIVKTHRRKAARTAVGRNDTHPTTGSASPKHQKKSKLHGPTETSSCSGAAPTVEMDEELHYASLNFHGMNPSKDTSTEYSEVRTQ

## Cc1cc(C(=O)NC[C@@H](O)[C@@H](O)[C@@H]2O[C@@](OC[C@H]3O[C@@H](O[C@H]4[C@H](O)[C@@H](O)[C@H](OCCN)O[C@@H]4CO)[C@H](O)[C@@H](O)[C@H]3O)(C(=O)O)C[C@H](O)[C@H]2NC(=O)Cn2cc(C3CCCCC3)nn2)cc(C)c1O [P22, β-D-Glucopyranoside, 2-aminoethyl O-[N-[2-(4-cyclohexyl-1H-1,2,3-triazol-1-yl)acetyl]-9-deoxy-9-[(4-hydroxy-3,5-dimethylbenzoyl)amino]-α-neuraminosyl] (2→6)-O-β-D-galactopyranosyl-(1→4)-]
  impact of mutation on P22 binding affinity: little to no significant impact
